Experimental findings from US8618178B2, “Method and substances for treating T-cell mediated autoimmune diseases” (Eberhard-Karls-Universitaet Tuebingen Universitaetsklinikum, priority 2006, dated 2013) are described below.

Assay [1] has as its system DC. Description: Colorimetric determination of cellular GSH content of DC. It counts as cell-based, mouse. As to conditions: L-BSO 0.5 mM, DMF 70 μM, MMF 200 μM. On the procedure:
Cellular GSH and GSSG were determined in micro-titer plate assays using colorimetric methods. The cellular GHS content is determined as a percentage of the GSH levels in freshly prepared controls or as pmol 10^−6 cells. GSSG was not detectable.
As antigen presenting cells (APC), T cell depleted spleen cells from syngenic mice were used. Dendritic cells (DC) which were obtained from bone marrow (BMDC) and cultured with GM-CSF were used for the relevant experiments on day 7 of culturing. For the experiment, in each case an equal number of APC were cultured either with the medium alone, with L-BSO (C8H18N2O3S, 0.5 mM), dimethyl sulfoxide DMSO(C2H6OS), dimethyl fumarate DMF (C6H8O4, dissolved in DMSO, 70 μM), or calcium monomethyl fumarate (MMF; CaC10H10O8, 200 μM). All substances except for MMF (Fumapharm) were purchased from Sigma-Aldrich. At the respective stated times (see below) the cells were either analyzed directly for their GSH content, used for T cell stimulation or stimulated for […] with Escherichia coli lipopolysaccharides 055.B5 (Sigma-Aldrich) or CpG-DNA 1668 (MWG Biotech) and IL-4 (Stratmann). […]
For the testing of the potential of pharmaceutical substances to lower the glutathione content of cells, the following procedure was carried out: cells (antigen-presenting cells or dendritic cells) are incubated with different concentrations of the given pharmaceutical substance to be tested. Then, after an incubation time of 1 hr, 2 hrs, 24 hrs or 48 hrs, the glutathione content of the cells is determined in comparison to control cells. […]
The samples and the GSH standard were diluted in a microtiter plate and the assay reaction started by addition of a reaction mix which contains glutathione reductase. […] The rise in the extinction is measured at 405 nm at 30 sec intervals over 10 mins with a microtiter plate reader. The glutathione content was determined using a calibration curve. […] The protein content was determined by the method of Lowry (see for example, Dringen, et al., “Supply by Astrocytes of CysGly as Precursor for neuronal Glutathione”, J. Neurosci 19:562-569). […]

For assay [2], the system named is experimental autoimmune encephalomyelitis (EAE). Description: Actively induced EAE in SJL mice, substance in the drinking water. As to conditions: for course/severity of actively induced EAE: DMF 0.3 mg/ml or L-BSO 0.15 mg/ml in the drinking water; for survival of mice with actively induced EAE: substance in the drinking water. Format: in vivo. The protocol: Spleen and lymph node CD4^+ T cells were stimulated with PLP (proteolipid protein) peptide 139-151 (10 μg/ml) and stimulated for four days with irradiated SJL-APC in the presence or absence of L-BSO (0.5 mM, Sigma), expanded for three to four days and then restimulated for cytokine production (proteolipid protein is the commonest myelin protein in the central nervous system and plays an important part as an autoantigen in the onset of multiple sclerosis). Next, 10^7 sham (control) or L-BSO treated T cells were injected intraperitoneally into naive SJL mice and the EAE developing as a result was observed. […] Half of the group was fed daily for 14 days with DMF 0.3 mg/ml (Fluka) or L-BSO 0.15 mg/ml in the drinking water. For the cytokine analysis of PLP-specific T cells, the draining lymph nodes of the SJL mice were removed 6 days after the immunization and CD4^+ T cells antigen-specifically analyzed (ELISPOT). For this, ELISPOT plates (Millipore Corporation) were coated with anti-IFN-γ or anti-IL-4 antibodies overnight at 4° C., blocked after 12 hrs with PBS/10% FCS and, after the solution had been poured off, the isolated T lymphocytes were incubated with APC and medium alone or in the presence of PLP peptide. After the incubation time, the cells were poured off, and the plates washed with PBS/Tween and incubated with biotin-conjugated secondary antibodies. After further washing procedures and incubation with streptavidin-alkaline phosphatase (Boehringer), the plates were incubated with developer solution. After washing with H2O, the number of spots was determined in the ELISPOT reader (Biosys).
(§1) In order further to study whether GSH deprivation can also influence the differentiation and pathogenicity of autoreactive T cells in vivo, mice were fed with DMF or L-BSO in the drinking water, and the control group only with drinking water. Active EAE induction was effected on day 10 with PLP peptide in complete Freund's adjuvant (CFA) and pertussis toxin. The mice were examined daily regarding the course of the artificially triggered disease. Through the administration of L-BSO or DMF, the GSH levels in lymphoid organs and in the brain of immunized mice could be lowered (not shown). […] 6 days after immunization, the draining lymph nodes of the mice were analyzed. For this, the CD4^+ T cells were isolated and the cytokine production of PLP-specific T cells measured using ELISPOT after in vitro stimulation.

Assay [3] in a line: GSH levels in organs of immunized mice after feeding. To be noted: fed in the drinking water; data not shown. Format: in vivo.
Source text: as §1, with “stimulation. […] The pharmaceutical substances to be tested can also be analyzed ex vivo for their potential to deplete GSH. For this, after treatment of experimental mice, small tissue pieces are removed from the respective organs and placed in about 1 ml of 1% SSA. The tissue piece in SSA is homogenized using an ultrasonic probe. The further GSH and protein determination is effected according to the procedure described for APC and DC. Comparison with the GSH content of control cells or control tissue indicates the GSH-lowering action of the pharmaceutical substance to be tested.” for “stimulation.”

Entries after “also recorded” stand apart in the source; their conditions may differ. Structures can show the parent of a compound that is named as a salt.

Take `COC(=O)/C=C/C(=O)OC` [DMF, dimethyl fumarate]: the “intracellular GSH content of DC” value in assay [1] was “depletes the intracellular glutathione level; also recorded: marked decrease”. Further, in assay [2], the “course/severity of actively induced EAE” value is “markedly milder EAE; also recorded: protects actively immunized mice against the onset of severe encephalomyelitis” and the “survival of mice with actively induced EAE” value is “all mice survived”. Besides, the “GSH levels in lymphoid organs and in the brain of immunized mice” value in assay [3] was “lowered”.

As to `CCCCS(=N)(=O)CCC(N)C(=O)O` [L-BSO, L-buthionine sulfoximine], the “intracellular GSH content of DC” value in assay [1] was “depletes the intracellular glutathione level; also recorded: marked decrease”. Further, in assay [2], the “course/severity of actively induced EAE” value was “markedly milder EAE; also recorded: markedly improved; also recorded: protects actively immunized mice against the onset of severe encephalomyelitis” and the “survival of mice with actively induced EAE” value is recorded as “all mice survived”. In addition, the “GSH levels in lymphoid organs and in the brain of immunized mice” value in assay [3] was “lowered”.

Turning to `COC(=O)/C=C/C(=O)[O-].[Ca+]` [MMF, calcium monomethyl fumarate], the “intracellular GSH content of DC” value in assay [1] is reported as “depletes the intracellular glutathione level; also recorded: marked decrease”.
